Measurements from patent US20260008746A1, “CATIONIC LIPID COMPOUND WITH HIGH EFFICIENCY, LOW TOXICITY AND STABLE EXPRESSION, AND COMPOSITION COMPRISNG SAME” (HANGZHOU TIANLONG PHARMACEUTICAL CO., LTD, priority 2023, published 2026).

Assays:
[1] = system: BALB/C mice; assay: In vivo imaging of Fluc-mRNA expression in mice delivered by LNP formulations; details: for average radiation intensity, 6 h / average radiation intensity, 24 h / average radiation intensity, 48 h / average radiation intensity, 7 d: LNP containing 10 pg Fluc-mRNA, intramuscular, female BALB/C mice
Outline: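 Female BALB/C mice (4-6 weeks, 17-19 g) received LNP carrying […] Fluc-mRNA intramuscularly. Substrate was given intraperitoneally at 6 h, 24 h, 48 h and 7 d, and average radiance was imaged by IVIS 5 min later.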

[2] = system: 293T cells; assay: Fluorescent detection of Fluc-mRNA (cell transfection efficiency of LNP formulations); assay type: cell-based; details: for Relative light unit (RLU): LNP formulation containing 0.3 μg Fluc-mRNA, 96-well plate, 24 hours; for Ratio relative to SM-102: RLU of named substance / RLU of SM-102; for difference from SM-102 in Fluc-mRNA fluorescence (GraphPad Prism analysis): statistical comparison with SM-102
Outline: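 293T cells seeded at 10,000 per well, cultured overnight, then given LNP carrying 0.3 μg Fluc-mRNA (cationic:neutral:structured:PEG-lipid 49:10:39.5:1.5 molar). Incubated 24 h. Luciferase signal read with kit reagent on an IVIS imaging system.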

[3] = Determination of particle size and polydispersity index (PDI) of lipid nanoparticles by dynamic light scattering; assay type: physicochemical; details: LNP formulation of named cationic lipid/DSPC/cholesterol/DMG-PEG2000 49:10:39.5:1.5; for Particle size (nm): 90° scattering angle, 25° C
Outline: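 LNPs of cationic lipid/DSPC/cholesterol/DMG-PEG2000 (49:10:39.5:1.5 mol%), lipid:mRNA 15:1 w/w, carrying eGFP or Fluc mRNA, made by ethanol injection into citrate buffer pH 4–5, sonicated, PBS-exchanged by ultrafiltration. Size and PDI by dynamic light scattering after dilution in RNase-free water, 90° angle, 25 °C, triplicate.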

[4] = system: 293T cells; assay: Cell survival rate determination (CCK-8); assay type: cell-based; details: for Cell survival rate (%): LNP formulation containing 1.5 μg Fluc-mRNA, 24 hours, CCK-8, absorbance at 450 nm; for cell survival rate lower than that of YK-101: cell survival rate of YK-101 minus that of named substance; for cell survival rate lower than that of YK-107: cell survival rate of YK-107 minus that of named substance; for cell survival rate lower than that of YK-108: cell survival rate of YK-108 minus that of named substance
Outline: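 293T cells were seeded overnight at 10,000 cells/well in 96-well plates, then exposed for 24 h to LNP containing 1.5 μg Fluc-mRNA (cationic:neutral:structural:polymer-conjugated lipid, 49:10:39.5:1.5 molar) or to Lipofectamine 3000. Viability was read by CCK-8, 1 h incubation, absorbance 450 nm.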

[5] = highest multiple, time point not stated

CCCCCCCCCCOC(=O)CCCN(CCO)CCCCC(=O)OCCC(CCCCCC)CCCCCC [YK-104]
average radiation intensity of YK-101, times that of named substance ([1]; 6 h): 2.0 times | average radiation intensity of YK-107, times that of named substance ([1]; 6 h): 2.1 times | average radiation intensity of YK-108, times that of named substance ([1]; 6 h): 2.7 times | average radiation intensity of YK-101, times that of named substance ([1]; 24 h): 9.3 times | average radiation intensity of YK-107, times that of named substance ([1]; 24 h): 11.4 times | average radiation intensity of YK-108, times that of named substance ([1]; 24 h): 12.3 times | average radiation intensity of YK-101, times that of named substance ([1]; 48 h): 5.6 times | average radiation intensity of YK-107, times that of named substance ([1]; 48 h): 6.8 times | average radiation intensity of YK-108, times that of named substance ([1]; 48 h): 7.0 times | average radiation intensity of YK-101, times that of named substance ([1]; 7 d): 1.5 times | average radiation intensity of YK-107, times that of named substance ([1]; 7 d): 1.7 times | average radiation intensity of YK-108, times that of named substance ([1]; 7 d): 1.8 times | average radiation intensity, 6 h ([1]; 6 h): 747000 | average radiation intensity, 24 h ([1]; 24 h): 113940 | average radiation intensity, 48 h ([1]; 48 h): 33095 | average radiation intensity, 7 d ([1]; 7 d): 7969 | Relative light unit (RLU) [2]: 1693707 RLU | Multiples (YK-107) ([2]; RLU of YK-107 / RLU of named substance): 13.20 | Multiples (YK-108) ([2]; RLU of YK-108 / RLU of named substance): 14.56 | Ratio relative to SM-102 [2]: 1.10 | difference from SM-102 in Fluc-mRNA fluorescence (GraphPad Prism analysis) [2]: no significant difference | PDI(%) [3]: 26.9% | Particle size (nm) [3]: 200 nm | Cell survival rate (%) [4]: 73.55% | cell survival rate lower than that of YK-101 [4]: 16.57% | cell survival rate lower than that of YK-107 [4]: 16.90% | cell survival rate lower than that of YK-108 [4]: 16.31%

CCCCCCCCCC(=O)OCCCCN(CCO)CCCCCC(=O)OCCC(CCCCCC)CCCCCC [YK-109]
average radiation intensity of YK-101, times that of named substance ([1]; 6 h): 2.4 times | average radiation intensity of YK-107, times that of named substance ([1]; 6 h): 2.6 times | average radiation intensity of YK-108, times that of named substance ([1]; 6 h): 3.2 times | average radiation intensity of YK-101, times that of named substance ([1]; 24 h): 11.2 times | average radiation intensity of YK-107, times that of named substance ([1]; 24 h): 13.8 times | average radiation intensity of YK-108, times that of named substance ([1]; 24 h): 14.8 times | average radiation intensity of YK-101, times that of named substance ([1]; 48 h): 10.1 times | average radiation intensity of YK-107, times that of named substance ([1]; 48 h): 12.2 times | average radiation intensity of YK-108, times that of named substance ([1]; 48 h): 12.5 times | average radiation intensity of YK-101, times that of named substance ([1]; 7 d): 2.5 times | average radiation intensity of YK-107, times that of named substance ([1]; 7 d): 2.7 times | average radiation intensity of YK-108, times that of named substance ([1]; 7 d): 2.9 times | average radiation intensity, 6 h ([1]; 6 h): 625040 | average radiation intensity, 24 h ([1]; 24 h): 94720 | average radiation intensity, 48 h ([1]; 48 h): 18496 | average radiation intensity, 7 d ([1]; 7 d): 4948 | expression amount of mRNA in mice of YK-101, times that of named substance [1, 5]: up to 11 times | expression amount of mRNA in mice of YK-107, times that of named substance [1, 5]: ≤ 13 times | Relative light unit (RLU) [2]: 717431 RLU | Ratio relative to SM-102 [2]: 0.47 | difference from SM-102 in Fluc-mRNA fluorescence (GraphPad Prism analysis) [2]: no significant difference | PDI(%) [3]: 28.2% | Particle size (nm) [3]: 205 nm | Cell survival rate (%) [4]: 69.45% | cell survival rate lower than that of YK-101 [4]: 20.67% | cell survival rate lower than that of YK-107 [4]: 21.00% | cell survival rate lower than that of YK-108 [4]: 20.41%
